Laboratory results from patent US20260345619A1 (Principia Biopharma Inc., priority 2023, published 2026).

Assay: Loss of asthma control (LOAC) events, 12-week ICS/LABA withdrawal study
Format: in vivo, human
Description: The general construct of this 12-week Loss of Asthma Control (LOAC) study consisted of a 4-week standardized ICS/LABA background therapy stabilization phase, a 4or 5-week background therapy withdrawal phase and a 3- or 4-week no background therapy phase, followed by a 4-week post IMP treatment safety follow-up period at the beginning of which, pre-screening asthma controller medications are restarted. Participants had access to short-acting β-agonist (SABA) reliever medication at all times during the protocol.
The primary endpoint was the proportion of patients with LOAC. The key secondary endpoint for the study was change in pre-bronchodilator FEV1 from baseline at EOT.
The primary endpoint was proportion of participants with LOAC during the 12-week treatment period.
Note that if the number of participants in some regions was too low, these regions may have been pooled with other regions. This strategy also applied to all the rest of the analyses where region was one of the covariates.
To assess the consistency in treatment effects across different subgroup levels, subgroup analyses were to be performed for the primary efficacy endpoint with respect to age group, gender, region, and other factors.
Secondary endpoints included pre-bronchodilator FEV1 change from baseline at EOT, ACQ-5 score change from baseline, and AQLQ score change from baseline. Other secondary and exploratory endpoints are described in Table 2.

[1] = 400 mg TID cohort, N = 64, mITT
[2] = 400 mg TID cohort, age <45 years, n = 25
[3] = 400 mg TID cohort, age ≥45 years, n = 39
[4] = 400 mg TID cohort, baseline BMI <25 kg/m^2, n = 12
[5] = 400 mg TID cohort, baseline BMI ≥25-<30 kg/m^2, n = 29
[6] = 400 mg TID cohort, baseline BMI ≥30 kg/m^2, n = 23
[7] = 400 mg TID cohort, baseline weight <60 kg, n = 2
[8] = 400 mg TID cohort, baseline weight ≥60-<90 kg, n = 41
[9] = 400 mg TID cohort, baseline weight ≥90 kg, n = 21
[10] = 400 mg TID cohort, female, n = 39
[11] = 400 mg TID cohort, male, n = 25
[12] = 400 mg TID, N=64, 12 weeks, mITT
[13] = 400 mg TID, 1 exacerbation within 2 years
[14] = 400 mg TID, 2 exacerbations within 2 years
[15] = 400 mg TID, FEV1 reversibility <12 %
[16] = 400 mg TID, FEV1 reversibility ≥12 %
[17] = 400 mg TID, age at onset <12 years
[18] = 400 mg TID, age at onset <18 years
[19] = 400 mg TID, age at onset ≥18-<40 years
[20] = 400 mg TID, age at onset ≥18 years
[21] = 400 mg TID, age at onset ≥40 years

SMILES: CC(C)(C=C(C#N)C(=O)N1CCC[C@@H](n2nc(-c3ccc(Oc4ccccc4)cc3F)c3c(N)ncnc32)C1)N1CCN(C2COC2)CC1 (mixture of isomers) [rilzabrutinib, (R)-2-[3-[4-amino-3-(2-fluoro-4-phenoxy-phenyl)pyrazolo[3,4-d]pyrimidin-1-yl]piperidine-1-carbonyl]-4-methyl-4-[4-(oxetan-3-yl)piperazin-1-yl]pent-2-enenitrile]
- Intervention discontinuation due to lack of efficacy or an AE related to asthma worsening, number [1]: 1
- Intervention discontinuation due to lack of efficacy or an AE related to asthma worsening, percentage [1]: (1.6)
- Number of participants requiring hospitalization or emergency room visit [1]: 0
- Number of participants with LOAC: Yes [1]: 12
- Number of participants with increase in ICS ≥4 times the last prescribed ICS dose (or ≥50% of the prescribed ICS dose at baseline if background therapy withdrawal completed) [1]: 0
- Number of participants with ≥6 additional reliever puffs of salbutamol/albuterol or levosalbutamol/levalbuterol in a 24 hour period (compared with baseline) on 2 consecutive days [1]: 0
- Number of participants with ≥30% reduction from baseline in AM PEF on 2 consecutive days [1]: 10
- Participants with LOAC not triggered by use of rescue medication, number [1]: 10
- Participants with LOAC not triggered by use of rescue medication, percentage [1]: (15.6)
- Participants with LOAC triggered by use of rescue medication, number [1]: 1
- Participants with LOAC triggered by use of rescue medication, percentage [1]: (1.6)
- Percentage of participants with LOAC: No [1]: (81.3)
- Percentage of participants with LOAC: Yes [1]: (18.8)
- Percentage of participants with ≥30% reduction from baseline in AM PEF on 2 consecutive days [1]: (15.6)
- LOAC incidence, number of participants (400 mg TID cohort, Western Countries, n = 2): 0
- LOAC incidence, number of participants [2]: 2
- LOAC incidence, percentage [2]: (8.0)
- LOAC OR vs. placebo (400 mg TID cohort, age <45 years, 95% CI (0.028, 0.725)): 0.142
- LOAC RD vs. placebo (400 mg TID cohort, age <45 years, 95% CI (−0.505, −0.093)): −0.299
- LOAC incidence, number of participants [3]: 10
- LOAC incidence, percentage [3]: (25.6)
- LOAC OR vs. placebo (400 mg TID cohort, age ≥45 years, 95% CI (0.408, 3.236)): 1.149
- LOAC RD vs. placebo (400 mg TID cohort, age ≥45 years, 95% CI (−0.165, 0.216)): 0.026
- LOAC incidence, number of participants [4]: 3
- LOAC incidence, percentage [4]: (25.0)
- LOAC OR vs. placebo (400 mg TID cohort, baseline BMI <25 kg/m^2, 95% CI (0.121, 2.801)): 0.583
- LOAC RD vs. placebo (400 mg TID cohort, baseline BMI <25 kg/m^2, 95% CI (−0.431, 0.203)): −0.114
- LOAC incidence, number of participants [5]: 3
- LOAC incidence, percentage [5]: (10.3)
- LOAC OR vs. placebo (400 mg TID cohort, baseline BMI ≥25-<30 kg/m^2, 95% CI (0.064, 1.172)): 0.274
- LOAC RD vs. placebo (400 mg TID cohort, baseline BMI ≥25-<30 kg/m^2, 95% CI (−0.398, 0.012)): −0.193
- LOAC incidence, number of participants [6]: 6
- LOAC incidence, percentage [6]: (26.1)
- LOAC OR vs. placebo (400 mg TID cohort, baseline BMI ≥30 kg/m^2, 95% CI (0.313, 5.604)): 1.324
- LOAC RD vs. placebo (400 mg TID cohort, baseline BMI ≥30 kg/m^2, 95% CI (−0.206, 0.307)): 0.050
- LOAC incidence, number of participants [7]: 1
- LOAC incidence, percentage [7]: (50.0)
- LOAC OR vs. placebo (400 mg TID cohort, baseline weight <60 kg, 95% CI (0.140, 64.262)): 3.000
- LOAC RD vs. placebo (400 mg TID cohort, baseline weight <60 kg, 95% CI (−0.485, 0.985)): 0.250
- LOAC incidence, number of participants [8]: 8
- LOAC incidence, percentage [8]: (19.5)
- LOAC OR vs. placebo (400 mg TID cohort, baseline weight ≥60-<90 kg, 95% CI (0.182, 1.392)): 0.503
- LOAC RD vs. placebo (400 mg TID cohort, baseline weight ≥60-<90 kg, 95% CI (−0.319, 0.059)): −0.130
- LOAC incidence, number of participants [9]: 3
- LOAC incidence, percentage [9]: (14.3)
- LOAC OR vs. placebo (400 mg TID cohort, baseline weight ≥90 kg, 95% CI (0.095, 2.645)): 0.500
- LOAC RD vs. placebo (400 mg TID cohort, baseline weight ≥90 kg, 95% CI (−0.367, 0.153)): −0.107
- LOAC incidence, number of participants [10]: 8
- LOAC incidence, percentage [10]: (20.5)
- LOAC OR vs. placebo (400 mg TID cohort, female, 95% CI (0.224, 1.828)): 0.640
- LOAC RD vs. placebo (400 mg TID cohort, female, 95% CI (−0.291, 0.123)): −0.084
- LOAC incidence, number of participants [11]: 4
- LOAC incidence, percentage [11]: (16.0)
- LOAC OR vs. placebo (400 mg TID cohort, male, 95% CI (0.091, 1.966)): 0.423
- participants without LOAC, number [12]: 52
- participants without LOAC, percent [12]: (81.3)
- participants with LOAC, number (400 mg TID, N=64, 12 weeks, mITT, placebo 20): 12
- participants with LOAC, percent (400 mg TID, N=64, 12 weeks, mITT, placebo […]): 18.8%
- RRR vs. placebo (%), LOAC (400 mg TID, mITT): 34.7%
- RR vs. placebo, LOAC (400 mg TID, mITT, 95% CI 0.348, 1.226): 0.653
- RD (risk difference) vs. placebo, LOAC (400 mg TID, mITT, 95% CI −0.238, 0.061): −0.088
- OR vs. placebo [13]: 0.323
- RD vs. Placebo [13]: −0.194
- LOAC, number [14]: 7
- OR vs. placebo [14]: 1.896
- RD vs. Placebo [14]: 0.117
- LOAC, number (400 mg TID, >2 exacerbations within 2 years): 0
- LOAC, number [15]: 9
- OR vs. placebo [15]: 0.643
- RD vs. Placebo [15]: −0.082
- LOAC, number [16]: 1
- OR vs. placebo [16]: 0.417
- RD vs. Placebo [16]: −0.090
- LOAC, number [17]: 2
- OR vs. placebo [17]: 0.250
- RD vs. Placebo [17]: −0.257
- LOAC, number [18]: 2
- OR vs. placebo [18]: 0.218
- RD vs. Placebo [18]: −0.245
- LOAC, number (400 mg TID, age at onset ≥12-<18 years): 0
- LOAC, number [19]: 6
- OR vs. placebo [19]: 0.514
- RD vs. Placebo [19]: −0.135
- LOAC, number [20]: 10
- OR vs. placebo [20]: 0.769
- RD vs. Placebo [20]: −0.049
- LOAC, number [21]: 4
- OR vs. placebo [21]: 1.619
- RD vs. Placebo [21]: 0.072
- LOAC, number (400 mg TID, all others than low EOS and low FeNO): 8
